In publication PMC10408569, “Recruitment of hexahydroquinoline as anticancer scaffold targeting inhibition of wild and mutants EGFR (EGFR^WT, EGFR^T790M, and EGFR^L858R)” (Journal of Enzyme Inhibition and Medicinal Chemistry, 2023):

Columns and labels:
MOLT-4 = assay: NCI-60 anticancer screening (SRB); type: cell-based; settings: Homo sapiens; MOLT-4, leukemia; one dose 10 μM; read-out: Growth Inhibition Percentage (GI %)
RPMI-8226 = assay: NCI-60 anticancer screening (SRB); type: cell-based; settings: Homo sapiens; RPMI-8226, leukemia; one dose 10 μM; read-out: Growth Inhibition Percentage (GI %)
A549/ATCC = assay: NCI-60 anticancer screening (SRB); type: cell-based; settings: Homo sapiens; A549/ATCC, NSC lung cancer; one dose 10 μM; read-out: Growth Inhibition Percentage (GI %)
EKVX = assay: NCI-60 anticancer screening (SRB); type: cell-based; settings: Homo sapiens, NSC lung cancer, one dose 10 μM, read-out: Growth Inhibition Percentage (GI %)
HOP-62 = assay: NCI-60 anticancer screening (SRB); type: cell-based; settings: Homo sapiens; HOP-62, NSC lung cancer; one dose 10 μM; read-out: Growth Inhibition Percentage (GI %)
HOP-92 = assay: NCI-60 anticancer screening (SRB); type: cell-based; settings: Homo sapiens; HOP-92, NSC lung cancer; one dose 10 μM; read-out: Growth Inhibition Percentage (GI %)
NCI-H460 = assay: NCI-60 anticancer screening (SRB); type: cell-based; settings: Homo sapiens; NCI-H460, NSC lung cancer; one dose 10 μM; read-out: Growth Inhibition Percentage (GI %)
NCI-H522 = assay: NCI-60 anticancer screening (SRB); type: cell-based; settings: Homo sapiens; NCI-H522, NSC lung cancer; one dose 10 μM; read-out: Growth Inhibition Percentage (GI %)
HCC-2998 = assay: NCI-60 anticancer screening (SRB); type: cell-based; settings: Homo sapiens; HCC-2998, colon cancer; one dose 10 μM; read-out: Growth Inhibition Percentage (GI %)
HT29 = assay: NCI-60 anticancer screening (SRB); type: cell-based; settings: Homo sapiens, HT-29; HT29, colon cancer; one dose 10 μM; read-out: Growth Inhibition Percentage (GI %)
SF-295 = assay: NCI-60 anticancer screening (SRB); type: cell-based; settings: Homo sapiens; SF-295, CNS cancer; one dose 10 μM; read-out: Growth Inhibition Percentage (GI %)
SF-539 = assay: NCI-60 anticancer screening (SRB); type: cell-based; settings: Homo sapiens; SF-539, CNS cancer; one dose 10 μM; read-out: Growth Inhibition Percentage (GI %)
SNB-19 = assay: NCI-60 anticancer screening (SRB); type: cell-based; settings: Homo sapiens; SNB-19, CNS cancer; one dose 10 μM; read-out: Growth Inhibition Percentage (GI %)
MALME-3M = assay: NCI-60 anticancer screening (SRB); type: cell-based; settings: Homo sapiens, melanoma, one dose 10 μM, read-out: Growth Inhibition Percentage (GI %)
MDA-MB-435 = assay: NCI-60 anticancer screening (SRB); type: cell-based; settings: Homo sapiens; MDA-MB-435, melanoma; one dose 10 μM; read-out: Growth Inhibition Percentage (GI %)
SK-MEL-28 = assay: NCI-60 anticancer screening (SRB); type: cell-based; settings: Homo sapiens; SK-MEL-28, melanoma; one dose 10 μM; read-out: Growth Inhibition Percentage (GI %)
SK-MEL-5 = assay: NCI-60 anticancer screening (SRB); type: cell-based; settings: Homo sapiens; SK-MEL-5, melanoma; one dose 10 μM; read-out: Growth Inhibition Percentage (GI %)
UACC-62 = assay: NCI-60 anticancer screening (SRB); type: cell-based; settings: Homo sapiens; UACC-62, melanoma; one dose 10 μM; read-out: Growth Inhibition Percentage (GI %)
OVCAR-3 = assay: NCI-60 anticancer screening (SRB); type: cell-based; settings: Homo sapiens; OVCAR-3, ovarian cancer; one dose 10 μM; read-out: Growth Inhibition Percentage (GI %)
OVCAR-4 = assay: NCI-60 anticancer screening (SRB); type: cell-based; settings: Homo sapiens; OVCAR-4, ovarian cancer; one dose 10 μM; read-out: Growth Inhibition Percentage (GI %)
OVCAR-8 = assay: NCI-60 anticancer screening (SRB); type: cell-based; settings: Homo sapiens; OVCAR-8, ovarian cancer; one dose 10 μM; read-out: Growth Inhibition Percentage (GI %)
ACHN = assay: NCI-60 anticancer screening (SRB); type: cell-based; settings: Homo sapiens, renal cancer, one dose 10 μM, read-out: Growth Inhibition Percentage (GI %)
CAKI-1 = assay: NCI-60 anticancer screening (SRB); type: cell-based; settings: Homo sapiens; CAKI-1, renal cancer; one dose 10 μM; read-out: Growth Inhibition Percentage (GI %)
SN 12C = assay: NCI-60 anticancer screening (SRB); type: cell-based; settings: Homo sapiens, SN12C; SN 12C, renal cancer; one dose 10 μM; read-out: Growth Inhibition Percentage (GI %)
UO-31 = assay: NCI-60 anticancer screening (SRB); type: cell-based; settings: Homo sapiens; UO-31, renal cancer; one dose 10 μM; read-out: Growth Inhibition Percentage (GI %)
DU-145 = assay: NCI-60 anticancer screening (SRB); type: cell-based; settings: Homo sapiens; DU-145, prostate cancer; one dose 10 μM; read-out: Growth Inhibition Percentage (GI %)
HS 578T = assay: NCI-60 anticancer screening (SRB); type: cell-based; settings: Homo sapiens; HS 578T, breast cancer; one dose 10 μM; read-out: Growth Inhibition Percentage (GI %)

CCOC(=O)C1=C(N)N(c2ccc(Cl)cc2)C2=C(C(=O)CC(C)(C)C2)C1c1ccc(OC)cc1 (racemic) [8h, (±)-Ethyl 2-amino-1–(4-chlorophenyl)-4–(4-methoxyphenyl)-7,7-dimethyl-5-oxo-1,4,5,6,7,8-hexahydroquinoline-3-carboxylate]
inhibition at 10 µM (MOLT-4): < 10% | inhibition at 10 µM (RPMI-8226): < 10% | inhibition at 10 µM (A549/ATCC): < 10% | inhibition at 10 µM (EKVX): < 10% | inhibition at 10 µM (HOP-62): < 10% | inhibition at 10 µM (HOP-92): < 10% | inhibition at 10 µM (NCI-H460): < 10% | inhibition at 10 µM (NCI-H522): < 10% | inhibition at 10 µM (HCC-2998): < 10% | inhibition at 10 µM (HT29): < 10% | inhibition at 10 µM (SF-295): < 10% | inhibition at 10 µM (SF-539): < 10% | inhibition at 10 µM (SNB-19): < 10% | inhibition at 10 µM (MALME-3M): < 10% | inhibition at 10 µM (MDA-MB-435): < 10% | inhibition at 10 µM (SK-MEL-28): < 10% | inhibition at 10 µM (SK-MEL-5): < 10% | inhibition at 10 µM (UACC-62): < 10% | inhibition at 10 µM (OVCAR-3): < 10% | inhibition at 10 µM (OVCAR-4): < 10% | inhibition at 10 µM (OVCAR-8): < 10% | inhibition at 10 µM (ACHN): < 10% | inhibition at 10 µM (CAKI-1): < 10% | inhibition at 10 µM (SN 12C): < 10% | inhibition at 10 µM (UO-31): < 10% | inhibition at 10 µM (DU-145): < 10% | inhibition at 10 µM (HS 578T): < 10% | melting point: 255 to 257 °C

CCOC(=O)C1=C(N)N(c2ccccc2)C2=C(C(=O)CC(C)(C)C2)C1c1ccc([N+](=O)[O-])cc1 (racemic) [8i, (±)-Ethyl 2-amino-4–(4-nitrophenyl)-7,7-dimethyl-5-oxo-1-phenyl-1,4,5,6,7,8-hexahydroquinoline-3-carboxylate]
inhibition at 10 µM (MOLT-4): 22% | inhibition at 10 µM (RPMI-8226): 17% | inhibition at 10 µM (A549/ATCC): < 10% | inhibition at 10 µM (EKVX): 14% | inhibition at 10 µM (HOP-62): < 10% | inhibition at 10 µM (HOP-92): < 10% | inhibition at 10 µM (NCI-H460): < 10% | inhibition at 10 µM (NCI-H522): 21% | inhibition at 10 µM (HCC-2998): < 10% | inhibition at 10 µM (HT29): < 10% | inhibition at 10 µM (SF-295): < 10% | inhibition at 10 µM (SF-539): < 10% | inhibition at 10 µM (SNB-19): < 10% | inhibition at 10 µM (MALME-3M): < 10% | inhibition at 10 µM (MDA-MB-435): < 10% | inhibition at 10 µM (SK-MEL-28): < 10% | inhibition at 10 µM (SK-MEL-5): < 10% | inhibition at 10 µM (UACC-62): 33% | inhibition at 10 µM (OVCAR-3): < 10% | inhibition at 10 µM (OVCAR-4): < 10% | inhibition at 10 µM (OVCAR-8): < 10% | inhibition at 10 µM (ACHN): 12% | inhibition at 10 µM (CAKI-1): 32% | inhibition at 10 µM (SN 12C): < 10% | inhibition at 10 µM (UO-31): < 10% | inhibition at 10 µM (DU-145): < 10% | inhibition at 10 µM (HS 578T): < 10% | melting point: 164 to 166 °C

CCOC(=O)C1=C(N)N(c2ccc(Cl)cc2)C2=C(C(=O)CC(C)(C)C2)C1c1ccc([N+](=O)[O-])cc1 (racemic) [8k, (±)-Ethyl2-amino-1–(4-chlorophenyl)-7,7-dimethyl-4–(4-nitrophenyl)-5-oxo-1,4,5,6,7,8-hexahydroquinoline-3-carboxylate]
inhibition at 10 µM (MOLT-4): 27% | inhibition at 10 µM (RPMI-8226): 43% | inhibition at 10 µM (A549/ATCC): 11% | inhibition at 10 µM (EKVX): 15% | inhibition at 10 µM (HOP-62): < 10% | inhibition at 10 µM (HOP-92): < 10% | inhibition at 10 µM (NCI-H460): < 10% | inhibition at 10 µM (NCI-H522): 27% | inhibition at 10 µM (HCC-2998): < 10% | inhibition at 10 µM (HT29): < 10% | inhibition at 10 µM (SF-295): < 10% | inhibition at 10 µM (SF-539): < 10% | inhibition at 10 µM (SNB-19): < 10% | inhibition at 10 µM (MALME-3M): < 10% | inhibition at 10 µM (MDA-MB-435): < 10% | inhibition at 10 µM (SK-MEL-28): < 10% | inhibition at 10 µM (SK-MEL-5): < 10% | inhibition at 10 µM (UACC-62): 29% | inhibition at 10 µM (OVCAR-3): < 10% | inhibition at 10 µM (OVCAR-4): < 10% | inhibition at 10 µM (OVCAR-8): 12% | inhibition at 10 µM (ACHN): 12% | inhibition at 10 µM (CAKI-1): 11% | inhibition at 10 µM (SN 12C): < 10% | inhibition at 10 µM (UO-31): 32% | inhibition at 10 µM (DU-145): < 10% | inhibition at 10 µM (HS 578T): < 10% | melting point: 198 to 200 °C

CCOC(=O)C1=C(N)N(c2ccccc2)C2=C(C(=O)CC(C)(C)C2)C1c1ccc(N2CCOCC2)cc1 (racemic) [8l, (±)-Ethyl 2-amino-7,7-dimethyl-4-[4-(morpholin-4-yl)phenyl]-5-oxo-1-phenyl-1,4,5,6,7,8-hexahydroquinoline-3-carboxylate]
inhibition at 10 µM (MOLT-4): < 10% | inhibition at 10 µM (RPMI-8226): < 10% | inhibition at 10 µM (A549/ATCC): < 10% | inhibition at 10 µM (EKVX): < 10% | inhibition at 10 µM (HOP-62): < 10% | inhibition at 10 µM (HOP-92): 12% | inhibition at 10 µM (NCI-H460): < 10% | inhibition at 10 µM (NCI-H522): 11% | inhibition at 10 µM (HCC-2998): < 10% | inhibition at 10 µM (HT29): < 10% | inhibition at 10 µM (SF-295): < 10% | inhibition at 10 µM (SF-539): < 10% | inhibition at 10 µM (SNB-19): < 10% | inhibition at 10 µM (MALME-3M): < 10% | inhibition at 10 µM (MDA-MB-435): < 10% | inhibition at 10 µM (SK-MEL-28): < 10% | inhibition at 10 µM (SK-MEL-5): < 10% | inhibition at 10 µM (UACC-62): 17% | inhibition at 10 µM (OVCAR-3): < 10% | inhibition at 10 µM (OVCAR-4): < 10% | inhibition at 10 µM (OVCAR-8): < 10% | inhibition at 10 µM (ACHN): < 10% | inhibition at 10 µM (CAKI-1): 18% | inhibition at 10 µM (SN 12C): < 10% | inhibition at 10 µM (UO-31): < 10% | inhibition at 10 µM (DU-145): < 10% | inhibition at 10 µM (HS 578T): < 10% | melting point: 193 to 195 °C
